Results from patent US10035830B2, “Method for treatment of GM1 gangliosidosis” (Korea Research Institute of Bioscience and Biotechnology, priority 2014, dated 2018).

Key:
[1] = test system: GM1-NPCs originated neurosphere; assay: Recovery of GM1-NPCs/neurosphere morphology by the inhibition of inflammasome (phase-contrast microscopy); format: cell-based, human; conditions: GM1-NPCs cultured with 1 μg/ml rhIL1RA or 10 μM Z-YVAD-FMK, 2~4 weeks; FIG. 30a
Experimental: To investigate the recovery of neural damage caused by the increased activation of inflammasome related metabolic pathway in GM1, GM1-NPCs were treated with the inflammasome inhibitors IL1β antagonist (rhIL1RA) and caspase-1 inhibitor (Z-YVAD-FMK), and then the morphology of GM1-NPCs was investigated.
Particularly, the differentiation of GM1-NPCs was induced by the same manner as described in Example <4-1>. Then, the induced GM1-NPCs were cultured in the culture medium respectively treated with 1 μg/ml rhIL1RA (R&D Systems, USA) or 10 μM Z-YVAD-FMK (Merck Millipore, Germany) in order to inhibit inflammasome therein. 2˜4 weeks later, the cultured GM1-NPCs originated neurosphere was obtained. The morphology of neurosphere was observed by phase-contrast microscopy.

GM1-NPCs = assay: Gene expression pattern in GM1-NPCs treated with inflammasome inhibitor (microarray, qPCR); format: cell-based, human; conditions: for tendency of changed genes to recover to the normal gene expression pattern: GM1-NPCs treated with Z-YVAD-FMK (10 μM) or rhIL1RA (1 μg/ml), FIG. 31, 33
Experimental: Particularly, GM1-iPSCs were constructed by the same manner as described in Example 2 and the differentiation of GM1-NPCs was induced by the same manner as described in Example <4-1>. Then, RNA was extracted from GM1-fibroblasts, GM1-iPSCs, or GM1-NPCs by using RNAiso Plus (Takara, Japan) or RNeasy mini kit (Qiagen, USA) according to the manufacturer's protocol. Reverse transcription PCR (PT PCR) was performed using 1˜2 μg of the extracted RNA as a template with Superscript III (Invitrogen, USA) in order to synthesize cDNA of the cell genome. Upon completion of the RT-PCR, 10 μl of qPCR reaction mixture was prepared by mixing 0.2 μl of the reaction product above, 1 μM oligonucleotide primer, […] of FAST SYBR green master mix (Applied Biosystems, USA), and distilled water, which proceeded to qPCR using 7500 Fast Real-time PCR system (Applied Biosystems, USA). The expression of the control GAPDH gene was also confirmed by the same manner as described above to correct the expression level. Based on the expression level of GAPDH mRNA, the fold change of NESTIN, NCAM, PAX6, OTX2, or REX1 mRNA was calculated.
Particularly, GM1-iPSCs were constructed by the same manner as described in Example 2, and the differentiation of GM1-NPCs was induced therefrom by the same manner as described in Example <4-1>. Then, GM1-fibroblasts, GM1-iPSCs, and GM1-NPCs were obtained. Microarray was performed by using Low RNA input linear amplification kit, cRNA cleanup module, and Whole Human Genome Microarray 4×44K (Agilent Technology, USA) according to the manufacturer's protocol. The obtained microarray images were revised as signals corresponding to WT-fibroblasts, WT-iPSCs, and WT-NPCs.
Particularly, GM1-NPCs were differentiated according to the method described in Example <4-1>, and then treated with rhIL1RA or Z-YVAD-FMK by the same manner as described in Example <9-1>. Microarray was performed by the same manner as described in Example <7-1> in order to investigate the up- or down-regulation of the gene involved in inflammasome. […] WT-NPC was used as the normal control. As for the negative control, GM1-NPCs were treated with DMSO instead of rhIL1RA or Z-YVAD-FMK. The expression pattern (either up- or down regulation) and the mRNA expression level were investigated by the same manner as described above.

[2] = GM1-NPCs treated with Z-YVAD-FMK (10 μM), FIG. 32

Row | Compound | morphology of GM1-neurosphere [1] | tendency of changed genes to recover to the normal gene expression pattern (GM1-NPCs) | increase of the reduced B4GALNT expression (GM1-NPCs; [2]) [fold] | reduction of GLB1 expression compared with that in GM1-NPCs (GM1-NPCs; [2]) [%] | oligo probe pairs displaying the changed expression pattern (GM1-NPCs; GM1-NPCs treated with Z-YVAD-FMK (10 μM), of total 27,375 oligo probe pairs, microarray, FIG. 31) [%] | genes displaying the changed expression pattern (GM1-NPCs; GM1-NPCs treated with rhIL1RA (1 μg/ml), FIG. 33) [%]
1 | COC(=O)C[C@H](NC(=O)[C@H](C)NC(=O)[C@@H](NC(=O)C(Cc1ccc(O)cc1)NC(=O)OCc1ccccc1)C(C)C)C(=O)CF (stereo partly drawn) [Z-YVAD-FMK, methyl(3S)-3-[(2S)-2-[(2S)-2-(2-{[(benzyloxy)carbonyl]amino}-3-(4-hydroxyphenyl)propanamido)-3-methylbutanamido]propanamido]-5-fluoro-4-oxopentanoate] | recovering the GM1 patient-specific cell morphology | tendency to recover their gene expression patterns changed by GM1 mediated neural damage back to the normal pattern | 2.6 | 47 | 9.3 | 
2 | rhIL1RA: interleukin 1-receptor antagonist protein, SEQ. ID. NO: 2; cat #280-RA-050 (rhIL-1ra), R&D systems | recovering the GM1 patient-specific cell morphology | tendency to recover the abnormal gene expression in GM1 cells to the normal expression pattern |  |  |  | 3.6
